Measurements published in patent US11401260B2, “Biochemical binding of RET9 and VEGFR2 inhibitors” (Kala Pharmaceuticals, Inc., priority 2017, dated 2022).

Legend:
RET9 = RET9 (Homo sapiens (Human), UniProt P07949); test: RET9 competition binding assay (DISCOVERX KINOMESCAN)
Protocol: A competition binding assay ([…]) was used to measure the ability of a compound to compete for binding of an immobilized adenosine triphosphate (ATP) site directed ligand using a DNA-tagged vascular endothelial growth receptor 2 (VEGFR2) as the target. The ability of the test compound to compete with the immobilized ligand was measured using quantitative polymerase chain reaction (qPCR) of the DNA tag (Fabian, M. A. et al., 23 Nature Biotechnology 329-336 (2005); Karaman, M. W. et al., 26 Nature Biotechnology 127-132 (2008)). Similarly, a competition binding assay ([…]) was used to determine the dissociation constant (Kd) of Compound 1 to RET9.

[1] = molecular target: vascular endothelial growth receptor 2 (VEGFR2) (Homo sapiens (Human), UniProt P35968); test: VEGFR2 competition binding assay (DISCOVERX KINOMESCAN); conditions: 11-point dose response, 3-fold serial dilution starting at 1 μM
Protocol: A competition binding assay ([…]) was used to measure the ability of a compound to compete for binding of an immobilized adenosine triphosphate (ATP) site directed ligand using a DNA-tagged vascular endothelial growth receptor 2 (VEGFR2) as the target. The ability of the test compound to compete with the immobilized ligand was measured using quantitative polymerase chain reaction (qPCR) of the DNA tag (Fabian, M. A. et al., 23 Nature Biotechnology 329-336 (2005); Karaman, M. W. et al., 26 Nature Biotechnology 127-132 (2008)). A VEGFR2 tagged T7 phage strain was prepared in an Escherichia coli (E. coli) derived from the BL21 strain. The E. coli were grown to log-phase, infected with VEGFR2 tagged T7 phage and then incubated with shaking at 32° C. until lysis. The lysate containing the kinase was then centrifuged and filtered to remove cell debris. Affinity resin for the VEGFR2 assay was prepared by treating Streptavidin-coated magnetic beads with a biotinylated small molecule ligand for 30 minutes at room temperature. […] The VEGFR2 concentration in the eluate was measured using qPCR. […] Binding constants were calculated with standard dose-response curve using the Hill equation with Hill slope set to -1. […]

Chain of RET9 (P07949 other isoform, or with tags, fused parts or gaps): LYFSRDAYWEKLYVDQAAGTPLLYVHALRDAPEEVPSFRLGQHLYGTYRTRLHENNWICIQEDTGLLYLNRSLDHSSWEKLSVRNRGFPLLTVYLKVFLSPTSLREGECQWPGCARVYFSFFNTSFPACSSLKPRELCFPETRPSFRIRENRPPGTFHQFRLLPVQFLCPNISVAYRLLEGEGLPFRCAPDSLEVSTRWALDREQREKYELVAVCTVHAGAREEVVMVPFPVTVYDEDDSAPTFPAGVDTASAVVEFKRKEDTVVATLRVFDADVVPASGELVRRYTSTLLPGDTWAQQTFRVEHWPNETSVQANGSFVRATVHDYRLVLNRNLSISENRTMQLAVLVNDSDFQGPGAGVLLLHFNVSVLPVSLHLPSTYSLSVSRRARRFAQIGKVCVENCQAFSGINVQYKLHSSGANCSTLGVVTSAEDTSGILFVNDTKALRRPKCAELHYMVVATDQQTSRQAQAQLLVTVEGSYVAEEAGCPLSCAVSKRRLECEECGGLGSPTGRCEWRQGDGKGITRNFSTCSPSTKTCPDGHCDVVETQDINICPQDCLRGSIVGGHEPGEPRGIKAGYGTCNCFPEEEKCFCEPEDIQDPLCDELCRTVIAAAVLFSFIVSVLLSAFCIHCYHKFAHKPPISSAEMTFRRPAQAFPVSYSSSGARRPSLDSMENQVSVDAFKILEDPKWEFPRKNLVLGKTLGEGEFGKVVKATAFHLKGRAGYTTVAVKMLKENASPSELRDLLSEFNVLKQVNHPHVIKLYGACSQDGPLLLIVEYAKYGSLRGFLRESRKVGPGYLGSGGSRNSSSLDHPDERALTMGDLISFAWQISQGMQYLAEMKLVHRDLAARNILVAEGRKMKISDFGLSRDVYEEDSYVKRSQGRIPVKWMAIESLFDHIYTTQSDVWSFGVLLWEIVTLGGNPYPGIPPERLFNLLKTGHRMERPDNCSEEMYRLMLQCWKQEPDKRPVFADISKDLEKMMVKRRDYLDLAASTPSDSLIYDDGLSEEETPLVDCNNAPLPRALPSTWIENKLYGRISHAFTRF
Chain of vascular endothelial growth receptor 2 (VEGFR2) (P35968 20-1356): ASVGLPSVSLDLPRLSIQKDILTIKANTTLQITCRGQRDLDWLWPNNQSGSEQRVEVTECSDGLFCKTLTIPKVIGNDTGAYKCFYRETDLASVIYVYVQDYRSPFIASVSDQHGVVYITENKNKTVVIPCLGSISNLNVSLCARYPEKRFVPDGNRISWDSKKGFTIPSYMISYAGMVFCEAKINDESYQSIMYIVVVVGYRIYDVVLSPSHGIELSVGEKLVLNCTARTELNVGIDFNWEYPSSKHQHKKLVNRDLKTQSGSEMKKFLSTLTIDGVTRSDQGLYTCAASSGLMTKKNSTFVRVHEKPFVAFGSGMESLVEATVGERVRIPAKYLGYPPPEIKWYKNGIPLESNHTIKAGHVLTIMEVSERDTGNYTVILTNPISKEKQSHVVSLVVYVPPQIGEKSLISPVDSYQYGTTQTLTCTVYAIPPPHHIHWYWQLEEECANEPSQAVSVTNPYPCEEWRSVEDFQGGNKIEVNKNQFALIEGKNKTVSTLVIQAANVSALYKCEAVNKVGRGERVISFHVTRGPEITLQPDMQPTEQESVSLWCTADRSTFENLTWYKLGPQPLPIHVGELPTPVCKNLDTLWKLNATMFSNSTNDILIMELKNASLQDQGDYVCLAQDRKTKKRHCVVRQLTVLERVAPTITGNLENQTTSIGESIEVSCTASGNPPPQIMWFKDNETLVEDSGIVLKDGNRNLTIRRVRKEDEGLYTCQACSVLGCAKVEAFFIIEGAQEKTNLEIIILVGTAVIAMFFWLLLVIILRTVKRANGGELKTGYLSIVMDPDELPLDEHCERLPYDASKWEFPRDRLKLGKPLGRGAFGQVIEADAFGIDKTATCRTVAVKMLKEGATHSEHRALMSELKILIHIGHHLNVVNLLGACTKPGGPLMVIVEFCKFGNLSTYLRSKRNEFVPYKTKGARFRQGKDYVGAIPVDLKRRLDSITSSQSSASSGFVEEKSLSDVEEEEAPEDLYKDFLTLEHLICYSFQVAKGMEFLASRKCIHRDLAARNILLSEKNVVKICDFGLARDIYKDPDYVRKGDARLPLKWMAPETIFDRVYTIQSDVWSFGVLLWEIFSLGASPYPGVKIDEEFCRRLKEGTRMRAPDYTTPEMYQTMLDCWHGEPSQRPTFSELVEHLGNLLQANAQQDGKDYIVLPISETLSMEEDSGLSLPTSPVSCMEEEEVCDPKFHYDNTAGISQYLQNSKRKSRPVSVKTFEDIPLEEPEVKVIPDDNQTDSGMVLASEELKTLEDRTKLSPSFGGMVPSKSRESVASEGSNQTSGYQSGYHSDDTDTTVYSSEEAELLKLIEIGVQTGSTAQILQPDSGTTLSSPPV

Kd (RET9): 3.9 nM
Kd [1]: 0.38 nM
Structure (SMILES): COc1cc2c(Oc3ccc4[nH]c(C)cc4c3F)ncnc2cc1OCCCN1CCC(CO)(CO)CC1 [Compound 1, 7-(3-[4,4-bis(hydroxymethyl)-1-piperidinyl]propoxy)-4-(4-fluoro-2-methyl-1H-indol-5-yloxy)-6-methoxyquinazoline]
